Experimental data published in paper PMC4076210, “Discovery of Novel AKT Inhibitors with Enhanced Anti-Tumor Effects in Combination with the MEK Inhibitor” (PLoS ONE, 2014).
Several values for one entry are separate records, joined by “and”; a condition that tells them apart may be missing. Identical values can stand only once.

Key:
PKCβ2 = PKCβ2 (Homo sapiens, UniProt P05771); assay: Kinase IC50 assay; type: biochemical
PKBγ(h) = target: T1, PKBγ(h) (Homo sapiens, UniProt Q9Y243); assay: Kinase panel; type: biochemical
T1 construct: purchased Millipore KinaseProfiler

CLK3(h) = target: T2, CLK3(h) (Homo sapiens, UniProt P49761); assay: Kinase panel; type: biochemical
T2 construct: purchased Millipore KinaseProfiler

CLK2(h) = target: T3, CLK2(h) (Homo sapiens, UniProt P49760); assay: Kinase panel; type: biochemical
T3 construct: purchased Millipore KinaseProfiler

BT474 cells = assay: Cell cycle analysis; type: cell-based, human; details: BT474, evident at 1 µM
Experimental: (§1) Cells were plated in 96 well plates at a density of 3000-5000 cells/well and allowed to adhere overnight. Cells were treated with DMSO or various concentrations of drug for 72 h, fixed and stained with propidium iodide to stain nuclei (Vindelov, 1982). Cells were analyzed in a flow cytometer (FACSCalibur; BD Biosciences, Franklin Lakes, NJ) and the fraction of cells in each phase of cell cycle was determined using the cell cycle analysis platform contained within the FlowJo software (Tree Star, Ashland, OR).

I9.2 cells = assay: Cell cycle analysis; type: cell-based, human; details: I9.2, 1 µM
Experimental: as §1

A3 cells = assay: Cell cycle analysis; type: cell-based, human; details: A3, 1 µM
Experimental: as §1

LNCaP cells = assay: Cell cycle analysis; type: cell-based, human; details: various concentrations
Experimental: as §1

HPAC tumor xenografts = assay: Xenograft tumor growth inhibition, combination with MEK inhibitor; type: in vivo, mouse; details: 30 mg/kg daily, day 42
Experimental: (§2) Tumors were initiated by injecting either cells (SKOV3, CAPAN-2 and HPAC) or a tumor fragments (BT474) subcutaneously into 6–8 week female athymic nude (SKOV3) and SCID (all others) mice. Once tumors reached between 120 and 300 mm^3, mice were randomized according to tumor volume into groups of n = 7–10 mice per treatment. GSK2110183 and GSK2141795 were administered daily at various doses by oral gavage. In combination experiments, GSK1120212 was also administered daily by oral gavage. Tumor volumes and body weight were measured twice weekly, tumor volume was measured with calipers and calculated using equation: […]. Results are represented as percent inhibition on completion of dosing = 100 x [1- average growth of drug-treated population/average growth of vehicle-treated control population].

CAPAN-2 tumor xenografts = assay: as above; type: in vivo, mouse; details: 30 mg/kg, day 69
Experimental: as §2

cancer patients = details: unselected patient population; cited from earlier work
[1] = Compound concentration in blood and tumor (HPLC/MS/MS); type: in vivo, mouse
Experimental: Concentration of the test compounds in the tissue and blood was analyzed using protein precipitation with acetonitrile, followed by HPLC/MS/MS analysis using positive ion atmospheric pressure chemical ionization or Turbo ionspray ionization (API 4000 or API 5000, Applied Biosystems).
The pharmacodynamic studies were carried out in SCID mice bearing BT474 tumor xenografts. […] Concentration of the test compounds was analysed by HPLC/MS/MS analysis.

[2] = tested on: FOXO_GFP translocation in MDA-MB-468; assay: FOXO3A-GFP translocation assay; type: cell-based, human; details: MDA-MB-468, 1 h, mean ± std dev
Experimental: MDA-MB-468 cells stably transfected with FOXO3A-GFP were plated at 1000 cells/96 well and allowed to adhere overnight. Cells were treated with DMSO or AKT inhibitor (0-10 µM) for 1 h. Plates were centrifuged at 1200 rpm for 10 min, and the medium aspirated. Cells were fixed with 200 μL of 4% paraformaldehyde (Alfa Aesar, Wood Hill, MA), and DAPI (80 ng/mL, Roche, Branchburg, NJ) was added to each well and incubated for 20 min at room temperature. […] Five fields per well were imaged to achieve ≥250 nuclei count per well. A ratio of nuclear to cytoplasmic intensity was calculated by the software. The formula used to calculate percentage nuclear translocation = (Fluorescence sample- Fluorescence DMSO)/ (Fluorescence 10 µM treatment sample- Fluorescence DMSO)*100. The calculation produces a scale of 0-100% with 100% being 10 µM of compound treatment and 0 being DMSO treatment. The normalized values were then plotted in the XLFit 4 parameter curve fitting program to generate EC50 values.

T3 sequence (P49760 whole entry): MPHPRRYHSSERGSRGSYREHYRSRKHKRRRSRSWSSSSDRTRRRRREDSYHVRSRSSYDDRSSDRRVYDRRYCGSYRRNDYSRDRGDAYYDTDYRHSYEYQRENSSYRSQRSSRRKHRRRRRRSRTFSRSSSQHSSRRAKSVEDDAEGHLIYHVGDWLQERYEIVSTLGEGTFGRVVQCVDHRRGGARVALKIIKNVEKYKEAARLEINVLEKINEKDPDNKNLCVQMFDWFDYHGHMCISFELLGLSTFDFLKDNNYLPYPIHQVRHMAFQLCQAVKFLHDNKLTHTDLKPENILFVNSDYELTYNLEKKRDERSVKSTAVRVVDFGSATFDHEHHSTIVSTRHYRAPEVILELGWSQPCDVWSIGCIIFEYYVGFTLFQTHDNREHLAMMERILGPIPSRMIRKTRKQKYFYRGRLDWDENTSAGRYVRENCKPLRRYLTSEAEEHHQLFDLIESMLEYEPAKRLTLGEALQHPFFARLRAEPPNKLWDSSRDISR
T1 sequence (Q9Y243 whole entry): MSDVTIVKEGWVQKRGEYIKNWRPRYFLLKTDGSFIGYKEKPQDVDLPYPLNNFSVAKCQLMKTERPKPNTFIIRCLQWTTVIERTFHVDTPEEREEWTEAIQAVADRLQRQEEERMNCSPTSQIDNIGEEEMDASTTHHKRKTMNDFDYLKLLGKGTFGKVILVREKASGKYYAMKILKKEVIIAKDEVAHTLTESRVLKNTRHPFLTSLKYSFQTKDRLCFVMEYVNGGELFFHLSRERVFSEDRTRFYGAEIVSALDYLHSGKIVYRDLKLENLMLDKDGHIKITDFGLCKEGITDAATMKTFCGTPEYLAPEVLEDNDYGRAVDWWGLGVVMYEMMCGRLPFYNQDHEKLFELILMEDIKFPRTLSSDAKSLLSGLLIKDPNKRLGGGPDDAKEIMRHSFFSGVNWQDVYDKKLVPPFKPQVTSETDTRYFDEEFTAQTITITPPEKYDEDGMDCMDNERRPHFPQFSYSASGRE
T2 sequence (P49761 whole entry): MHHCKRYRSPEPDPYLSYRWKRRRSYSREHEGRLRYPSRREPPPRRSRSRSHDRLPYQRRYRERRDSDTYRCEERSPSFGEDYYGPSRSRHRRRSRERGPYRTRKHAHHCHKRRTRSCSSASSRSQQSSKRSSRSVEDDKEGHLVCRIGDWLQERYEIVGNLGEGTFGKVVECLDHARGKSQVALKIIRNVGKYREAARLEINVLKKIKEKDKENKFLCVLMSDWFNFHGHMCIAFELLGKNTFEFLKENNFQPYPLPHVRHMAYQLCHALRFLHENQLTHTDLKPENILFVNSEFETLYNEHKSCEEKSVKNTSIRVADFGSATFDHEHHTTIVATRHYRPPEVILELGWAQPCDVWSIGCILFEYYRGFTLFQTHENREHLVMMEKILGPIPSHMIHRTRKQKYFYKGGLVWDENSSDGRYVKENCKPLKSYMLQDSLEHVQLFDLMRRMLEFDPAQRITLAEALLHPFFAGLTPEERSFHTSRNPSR
Chain of PKCβ2 (P05771 1-673 isoform P05771-2): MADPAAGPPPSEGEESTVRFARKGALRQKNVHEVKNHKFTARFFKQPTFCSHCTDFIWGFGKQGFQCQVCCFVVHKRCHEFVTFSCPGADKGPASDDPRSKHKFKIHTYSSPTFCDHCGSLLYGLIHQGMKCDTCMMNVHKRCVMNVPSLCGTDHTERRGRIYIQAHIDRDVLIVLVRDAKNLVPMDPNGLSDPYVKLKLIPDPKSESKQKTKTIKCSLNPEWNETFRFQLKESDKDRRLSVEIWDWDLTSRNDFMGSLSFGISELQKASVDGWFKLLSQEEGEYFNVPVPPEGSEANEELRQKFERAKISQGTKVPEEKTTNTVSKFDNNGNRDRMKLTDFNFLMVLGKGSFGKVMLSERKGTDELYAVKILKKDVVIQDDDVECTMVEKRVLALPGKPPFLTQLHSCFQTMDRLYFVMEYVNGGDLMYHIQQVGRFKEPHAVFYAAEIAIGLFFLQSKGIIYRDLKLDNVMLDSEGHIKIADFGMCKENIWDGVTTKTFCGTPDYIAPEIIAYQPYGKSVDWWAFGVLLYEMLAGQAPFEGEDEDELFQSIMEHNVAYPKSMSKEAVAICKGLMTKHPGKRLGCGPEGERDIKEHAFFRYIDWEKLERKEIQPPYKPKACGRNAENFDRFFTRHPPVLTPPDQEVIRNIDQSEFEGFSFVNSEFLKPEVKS

Cn1ncc(Cl)c1-c1cc(C(=O)N[C@H](CN)Cc2cccc(F)c2)sc1Cl [GSK2110183]
IC50 (PKCβ2): > 1000 nM

Cn1ncc(Cl)c1-c1cc(C(=O)N[C@H](CN)Cc2ccc(F)c(F)c2)oc1Cl [GSK2141795]
inhibition at 0.5 µM (PKBγ(h); 0.5 µM): 98% | inhibition at 10 µM (PKBγ(h); 10 µM): 98% | inhibition at 0.5 µM (CLK3(h); 0.5 µM): 2% | inhibition at 10 µM (CLK3(h); 10 µM): 59% | inhibition at 0.5 µM (CLK2(h); 0.5 µM): 58% | inhibition at 10 µM (CLK2(h); 10 µM): 94% | effect on cell cycle (BT474 cells): G1 arrest | effect on cell cycle (I9.2 cells): dose dependant increase in G1 cellular arrest | effect on cell cycle (A3 cells): dose dependant increase in G1 cellular arrest | effect on cell cycle (LNCaP cells): concentration-dependent increase in cells within the sub-G1 phase | TGI (HPAC tumor xenografts): 31% | TGI (CAPAN-2 tumor xenografts): 26% | clinical activity, single agent (cancer patients): partial response and stable disease | blood concentrations ([1]; 30 mg/kg QDx7, time course, maintained for 8 h): 2000 to 3000 nM | concentration at 2 h ([1]; SCID, mouse, whole blood, 30 mg/kg QDx7 oral, 2 h post last dose): ~3000 nM | IC50 (nM) / EC50, FOXO_GFP translocation [2]: 47 nM and 47 ± 37 nM
